Source: patent US9907791B2, “Ron inhibitors for use in preventing and treating bone loss” (UNIVERSITY OF UTAH RESEARCH FOUNDATION, priority 2014, dated 2018)

System: bone marrow osteoclasts
Experiment: Osteoclast resorption assay
Format: cell-based, mice
Details: WT osteoclasts, inhibitors 10 μM or muRANK-Fc 10 μg/mL daily day 9 to 12
Description: Bone marrow osteoclasts were generated from 6 to 8 week old WT and RonTK−/− mice. Briefly, bone marrow was isolated from hindlimb bones and plated in α-MEM media containing 10% heat-inactivated fetal bovine serum (FBS, Sigma, St. Louis, Mo.), 100 units/mL penicillin-streptomycin (Hyclone), and 33 ng/mL human macrophage colony-stimulating factor (hM-CSF) (PeproTech, Rocky Hill, N.J.) for 24 hours. Non-adherent cells were collected and frozen for later use. To assess resorption activity, bone marrow precursor cells were thawed and seeded at a density of 1×10^5 cells per well in BioCoat Osteologic slides (BD Biosciences, San Jose, Calif.) in α-MEM media containing 10% FBS and antibiotics. After adhering overnight, media was removed and media containing 33 ng/mL hM-CSF and 9 ng/mL muRANKL (R & D systems, Minneapolis, Minn.) was added. The medium was changed every 3 days depending on acidification, and the assay was terminated as indicated. Recombinant human MSP was prepared and added daily as indicated. Cells were removed with 6% bleach and slides were viewed microscopically using phase-contrast with 20× magnification. Osteolytic resorption area within 5 representative fields was determined using Image J software, experiments were performed in triplicate. […]

SMILES: CCOc1ccn(-c2ccc(F)cc2)c(=O)c1C(=O)Nc1ccc(Oc2ccnc(N)c2Cl)c(F)c1 [ASLAN002]
- MSP-induced increase in osteoclast resorption (resorption area): dramatically reduced
